Measurements reported in US20160235807A1, “AGONISTS OF GUANYLATE CYCLASE USEFUL FOR DOWNREGULATION OF PRO-INFLAMMATORY CYTOKINES” (SYNERGY PHARMACEUTICALS, INC., priority 2013, published 2016).
Bridge positions count the residues as written; N and C are the ends. Square brackets hold non-standard residues; d marks the D form. Peptide text beside a SMILES is read from it.

Key:
NF-κB = experiment: Inhibition of NF-κB signaling in LPS-stimulated T84 cells, Western blot; type: cell-based, human
Protocol: Approximately 1.5×10^6 T84 cells were seeded into 100 mm dishes and cultured essentially as described (Shailubhai et al. 2000). At 85-90% confluence, cells were washed and treated with 10 μg/ml lipopolysaccharides (LPS) from Escherichia coli (Sigma-Aldrich, St. Louis, Mo.) for 4 h. Subsequent to LPS treatment, cells were washed and replenished with fresh media containing 8-Bromo-cyclic GMP (8-Br-cGMP) at 0, 0.1, 1, 10, 100 and 1000 μM (Enzo Life Science, Farmingdale, N.Y.), or SP-333 at 0, 0.01, 0.1, 1 and 10 μM together with 500 μM of phosphodiesterase inhibitor Zaprinast (Sigma-Aldrich, St. Louis, Mo.) for 16 h before harvest. For analyzing phosphorylation status of IKK-α/β, T84 cells were stimulated with LPS (10 μg/ml) for 4 h followed by treatment with 0.1 and 1.0 μM of SP-333 in the presence of 500 μM Zaprinast, for 2 h. The control cells (without LPS treatment) were washed and refilled with fresh media and harvested simultaneously with treated cells. Nuclear and cytosolic extracts were prepared by the previously described method (Aiamkitsumrit et al. 2007). Protein concentration was measured with a Bio-Rad protein assay kit (Bio-Rad, Hercules, Calif.). The extracts were stored at −80° C. until use.
T84 cells at 85-90% confluence were washed and treated with 10 μg/ml Escherichia coli LPS (Sigma-Aldrich, St. Louis, Mo.) for 4 h.
Western Blot analysis: This was performed essentially as described^21 employing either 50 μg of cytoplasmic or 25 μg proteins of the nuclear fractions. The blots were probed overnight with primary antibodies of interest (anti-p65 antibody, 1:200 dilution; anti-IκB antibody 1:500 dilution; anti-phosphorylated p65 antibody, 1:250 dilution; anti-phosphorylated IκB antibody 1:250 dilution; all were from Santa Cruz Biotechnology (Santa Cruz, Calif.). Anti-IKK-β and phosphorylated IKK-α/β (Ser 176/180) were purchased from Cell Signaling Technology, Boston, Mass. and used at 1:500 dilution; anti-mouse or anti-rabbit antibodies conjugated to […] were used for chemiluminescence detection as recommended by manufacturer (GE Healthcare, Piscataway, N.J.).

[1] = test system: Ki-67 labeling of crypt epithelial cells; experiment: Ki-67 labeling in large bowel cross sections, DSS-induced colitis in BDF-1 mice; type: in vivo, mouse
Source text: A total of 40 samples were chosen for analysis of MPO activity and Ki-67 labeling from the treatment groups that received SP-333, its vehicle control (0.1M phosphate buffer, pH 7) and the reference compound (5-ASA). A random number generator (www.random.org) was employed to select samples from these groups (7 from each of the SP-333-recipient groups and 6 from each of the vehicle and 5-ASA groups).
Employing standard procedures, two non-serial sections from each animal, were de-waxed in xylene and rehydrated in graded alcohols to PBS (pH 7.4). Endogenous peroxidase was blocked by incubation in 0.3% […] for 30 min. Antigen retrieval was performed by placing the slides in 1 L of citrate buffer (pH 6) and microwaving at high power for 20 minutes. After cooling for 15 minutes, sections were incubated with 10% normal goat serum for 30 minutes to block non-specific binding Primary antibody (mouse monoclonal IgG, clone MIB-1, Dako) at 1/50 dilution was added and incubated for 1 hour at room temperature. Sections were washed and incubated with biotinylated secondary IgG antibody (1/200 dilution; Vector Labs Inc.), for 45 minutes at room temperature. Subsequently, slides were washed and incubated with ABC Elite reagents (Vector Labs Inc.), for 30 minutes at room temperature. […] Sections were counterstained with thionine, dehydrated and mounted.

[2] = type: in vitro ADME
Protocol: The potency of test peptides to stimulate cGMP synthesis in T84 cells was assayed by a published procedure (Shailubhai et al. 2000). Briefly, confluent monolayers of T-84 cells in 24-well plates were washed twice with 250 μl of DMEM containing 50 mM HEPES (pH 7.4), pre-incubated at 37° C. for 10 min with 250 μl of DMEM containing 50 mM HEPES (pH 7.4) and 1 mM isobutylmethylxanthine (IBMX), followed by incubation with test peptide for 30 min. The medium was aspirated, and the reaction was terminated by the addition of 3% perchloric acid. Following centrifugation, and neutralization with 0.1 N NaOH, the resulting supernatant was used directly for measurements of intracellular cGMP using an ELISA kit (Caymen Chemical, Ann Arbor, Mich.). Results are expressed as pmol of cGMP/mg of protein in the cell extracts.
Plecanatide and SP-333 were incubated in simulated intestinal fluid (SIF) for 6-24 h. Inactivated SIF was used as a control. Following the treatment, samples were analyzed by HPLC by cGMP production in T84 cells. […] The active metabolite, SP-338 was characterized by MS and MS/MS and identified to be formed via removal of carboxyl terminal leucine possibly due to cleavage by carboxypeptidases.

CC(C)C[C@@H]1NC(=O)[C@H](CCC(=O)O)NC(=O)[C@@H](NC(=O)[C@H](CCC(=O)O)NC(=O)[C@H](CC(=O)O)NC(=O)[C@H](N)CC(N)=O)CSSC[C@@H]2NC(=O)[C@H](C)NC(=O)[C@H](C(C)C)NC(=O)[C@H](CC(N)=O)NC(=O)[C@H](C(C)C)NC(=O)[C@H](CSSC[C@@H](C(=O)N[C@H](CC(C)C)C(=O)O)NC(=O)CNC(=O)[C@H]([C@@H](C)O)NC2=O)NC1=O [SP-333, dAsn^1-Asp^2-Glu^3-Cys^4-Glu^5-Leu^6-Cys^7-Val^8-Asn^9-Val^10-Ala^11-Cys^12-Thr^13-Gly^14-Cys^15-dLeu^16] (H-[dN]DECELCVNVACTGC[dL]-OH; disulfide 4-12, 7-15; N-terminus and C-terminus assumed)
levels of phospho-p65 (NF-κB; LPS 10 μg/ml 4 h, then SP-333 (1.0 and 10 μM) 16 h, zaprinast 500 μM): reduced levels of phospho-p65 in a dose-dependent manner
levels of IκBα (NF-κB; LPS-activated T84 cells): increase
levels of phospho-IκBα (NF-κB; LPS-activated T84 cells): reduced
level of total IKKβ (NF-κB; LPS-activated T84 cells, FIG. 3C): remained unchanged
LPS-mediated increase in phosphorylation of IKKβ (NF-κB; SP-333 1 μM, 2 h after LPS 4 h): completely reversed
LPS induced activation of NF-κB (NF-κB; T84 cells): inhibited
crypts with normal Ki-67 labeling, comparison among groups ([1]; SP-333 0.005 mg/kg): greatest percentage of crypts with normal Ki-67 labeling
proportion of Ki-67 positive crypts ([1]; SP-333 0.005 mg/kg/day (DSS control 35.3±4.86%)): 60.4±6.96%
proportion of Ki-67 positive crypts ([1]; SP-333 0.05 mg/kg/day): 58.7±7.3%
proportion of crypts with Ki-67 labeling vs DSS treated control ([1]; SP-333 treated sections): larger proportions of crypts with Ki-67 labeling
biological activity lost [2]: ~20%
biological activity retained [2]: retains most of its biological activity
